Source: paper PMC10256202, “Allosteric regulation of Senecavirus A 3C^pro proteolytic activity by an endogenous phospholipid” (PLOS Pathogens, 2023)

Molecular target: T1, SVA 3C^pro (Seneca Valley virus USA/SSV-001, UniProt Q155Z9)
T1 construct: full-length mature 3C cut from the genome polyprotein; codon-optimized, E. coli BL21(DE3); N-terminal His6-SUMO tag removed by ULP1 (lipid strips: His-tagged protein)
Experiment: CL-specific ELISA of lipid co-purified with the protein
Conditions: endogenous E. coli lipid extracted by heating; lipid-binding (allosteric) site

T1 sequence (Q155Z9 1509-1719): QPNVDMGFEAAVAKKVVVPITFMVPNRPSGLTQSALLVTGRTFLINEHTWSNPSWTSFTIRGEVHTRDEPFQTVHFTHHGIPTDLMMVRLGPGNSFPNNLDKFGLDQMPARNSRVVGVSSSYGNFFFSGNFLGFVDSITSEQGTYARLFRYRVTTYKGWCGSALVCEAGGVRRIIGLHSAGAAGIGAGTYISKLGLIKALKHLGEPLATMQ

cardiolipin [CL]
lipid content: ~ 24.2 μg/L
